# Experimental data published in ChEMBL document CHEMBL1136562, “Structure-activity relationships of substituted benzothiophene-anthranilamide factor Xa inhibitors” (Bioorg Med Chem Lett, 2003).
# pKi: −log10 of the molar value.
# Assays:
# [1] = target: Coagulation factor X (Homo sapiens, UniProt P00742); test: Inhibition constant against human factor Xa; conditions: read-out: Ki app
# [2] = target: Prothrombin (Homo sapiens, UniProt P00734); test: Inhibition constant against human thrombin; conditions: read-out: Ki app
# [3] = target: Cationic trypsin (Bos taurus); test: Inhibition constant against bovine trypsin
# Chain of Coagulation factor X (P00742 41-179 limits assumed): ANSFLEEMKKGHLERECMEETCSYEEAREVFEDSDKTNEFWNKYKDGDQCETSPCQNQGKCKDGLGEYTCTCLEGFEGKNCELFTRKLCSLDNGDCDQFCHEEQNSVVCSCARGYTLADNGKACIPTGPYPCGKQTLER
# Chain of Coagulation factor X (P00742 235-488 limits assumed): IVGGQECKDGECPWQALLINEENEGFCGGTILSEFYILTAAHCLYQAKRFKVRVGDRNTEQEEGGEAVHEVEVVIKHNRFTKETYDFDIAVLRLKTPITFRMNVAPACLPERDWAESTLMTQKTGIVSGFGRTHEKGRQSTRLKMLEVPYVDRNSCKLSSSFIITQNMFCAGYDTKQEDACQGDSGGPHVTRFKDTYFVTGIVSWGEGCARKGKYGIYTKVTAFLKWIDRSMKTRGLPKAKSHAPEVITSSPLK
pKi [1],pKi [2],Ki app [3],Compound
< 5.30,< 5.30,> 5 µM,Cc1ccc(NC(=O)c2sc3ccccc3c2Cl)c(C(=O)Nc2ccc(C(F)(F)F)cc2)c1
7.80,< 5.30,> 5 µM,Nc1ccc(NC(=O)c2sc3ccccc3c2Cl)c(C(=O)Nc2ccc(Cl)cc2)c1
5.33,< 5.30,> 5 µM,Cc1ccc(NC(=O)c2sc3ccccc3c2Cl)c(C(=O)Nc2ccc(C(=O)O)cc2)c1
< 5.30,< 5.30,> 5 µM,O=C(Nc1ccc(Cl)cc1)c1cc(N2CCCC2)ccc1NC(=O)c1sc2ccccc2c1Cl
< 6.30,< 5.30,,O=C(Nc1ccc(Cl)cc1)c1cc([N+](=O)[O-])ccc1NC(=O)c1sc2ccccc2c1Cl
6.55,< 5.30,,Cc1ccc(NC(=O)c2sc3ccccc3c2Cl)c(C(=O)Nc2ccc(N)cc2)c1
7.59,< 5.30,> 5 µM,O=C(Nc1cccc(F)c1C(=O)Nc1ccc(Cl)cc1)c1sc2ccccc2c1Cl
7.00,< 5.30,> 5 µM,O=C(Nc1ccc(Cl)cc1)c1ccc(C(F)(F)F)cc1NC(=O)c1sc2ccccc2c1Cl
5.36,< 5.30,,Cc1ccc(NC(=O)c2sc3ccccc3c2O)c(C(=O)Nc2ccc(Cl)cc2)c1
8.14,< 5.30,> 5 µM,Cc1ccc(C(=O)Nc2ccc(Cl)cc2)c(NC(=O)c2sc3ccccc3c2Cl)c1
8.23,< 5.30,> 5 µM,COc1c(C(=O)Nc2ccc(C)cc2C(=O)Nc2ccc(Cl)cc2)sc2ccccc12
7.66,< 5.30,,COc1cccc(C(=O)Nc2ccc(Cl)cc2)c1NC(=O)c1sc2ccccc2c1Cl
6.02,< 5.30,> 5 µM,Cc1ccc(NC(=O)c2ccccc2Br)c(C(=O)Nc2ccc(Cl)cc2)c1
7.74,< 5.30,,O=C(Nc1ccc(Cl)cc1)c1cccc(O)c1NC(=O)c1sc2ccccc2c1Cl
7.66,< 5.30,> 5 µM,CCOC(=O)COc1cccc(C(=O)Nc2ccc(Cl)cc2)c1NC(=O)c1sc2ccccc2c1Cl
6.33,< 5.30,> 5 µM,CN1CCN(c2ccc(NC(=O)c3sc4ccccc4c3Cl)c(C(=O)Nc3ccc(Cl)cc3)c2)CC1
7.62,< 5.30,> 5 µM,O=C(Nc1ccc(Cl)cc1)c1cccc(Cl)c1NC(=O)c1sc2ccccc2c1Cl
7.80,< 5.30,> 5 µM,COc1ccc(NC(=O)c2cc(C)ccc2NC(=O)c2sc3ccccc3c2Cl)cc1
6.23,< 5.30,,Cc1ccc(NC(=O)c2cc3ccccc3s2)c(C(=O)Nc2ccc(F)cc2)c1
7.11,< 5.30,> 5 µM,Cc1ccc(NC(=O)c2ccc3ccccc3c2)c(C(=O)Nc2ccc(Cl)cc2)c1
9.22,< 5.30,> 5 µM,O=C(Nc1ccc(Cl)cc1)c1cc(Cl)ccc1NC(=O)c1sc2ccccc2c1Cl
6.80,< 5.30,> 5 µM,COc1ccsc1C(=O)Nc1ccc(C)cc1C(=O)Nc1ccc(Cl)cc1
7.96,< 5.30,> 5 µM,Cc1cc(NC(=O)c2sc3ccccc3c2Cl)c(C(=O)Nc2ccc(Cl)cc2)cc1Cl
6.68,< 5.30,> 5 µM,Cc1ccc(NC(=O)c2sc3ccccc3c2Cl)c(C(=O)Nc2cccnc2)c1
8.74,< 5.30,,Cc1cc(Cl)cc(C(=O)Nc2ccc(Cl)cc2)c1NC(=O)c1sc2ccccc2c1Cl
7.60,< 5.30,> 5 µM,Cc1ccc(NC(=O)c2sc3ccccc3c2C)c(C(=O)Nc2ccc(F)cc2)c1
< 5.30,< 5.30,> 5 µM,CSc1ncc(Cl)c(C(=O)Nc2ccc(C)cc2C(=O)Nc2ccc(Cl)cc2)n1
< 5.30,< 5.30,> 5 µM,CCOc1ccc(NC(=O)c2cc(C)ccc2NC(=O)c2sc3ccccc3c2Cl)cc1
7.72,< 5.30,> 5 µM,Cc1ccc(NC(=O)c2sc3ccccc3c2Cl)c(C(=O)Nc2ccccc2)c1
6.82,< 5.30,,Cc1ccc(NC(=O)c2sc3ccccc3c2Cl)c(C(=O)Nc2ccc(C#N)cc2)c1

# Further lines, the compound ahead of its results:
Compound,pKi [1],pKi [2],Ki app [3]
Cc1ccc(NC(=O)c2cc(C)ccc2NC(=O)c2sc3ccccc3c2Cl)cc1,8.15,< 5.30,> 5 µM
O=C(Nc1ccc(Cl)cc1)c1cc(F)ccc1NC(=O)c1sc2ccccc2c1Cl,8.30,< 5.30,
Cc1ccc(NC(=O)c2sc3ccccc3c2Cl)c(C(=O)Nc2ccccn2)c1,7.52,< 5.30,> 5 µM
Cc1ccc(NC(=O)c2sccc2Cl)c(C(=O)Nc2ccc(F)cc2)c1,6.41,< 5.30,> 5 µM
O=C(Nc1ccc(Cl)cc1)c1ccccc1NC(=O)c1sc2ccccc2c1Cl,8.15,< 5.30,> 5 µM
Cc1ccc(NC(=O)c2sc3ccccc3c2Cl)c(C(=O)Nc2ccc(F)cc2)c1,,< 5.30,
Cc1ccc(NC(=O)c2sc3ccccc3c2Cl)c(C(=O)Nc2ccccc2Cl)c1,< 5.30,< 5.30,
Cc1ccc(NC(=O)c2scc(S(C)(=O)=O)c2Cl)c(C(=O)Nc2ccc(Cl)cc2)c1,7.85,< 5.30,> 5 µM
Cc1cccc(NC(=O)c2sc3ccccc3c2Cl)c1C(=O)Nc1ccc(Cl)cc1,< 5.30,< 5.30,> 5 µM
COc1cc(Cl)cc(C(=O)Nc2ccc(Cl)cc2)c1NC(=O)c1sc2ccccc2c1Cl,8.66,< 5.30,> 5 µM
Cc1ccc(NC(=O)c2sc3ccccc3c2Cl)c(C(=O)Nc2ccc(Cl)cn2)c1,8.64,< 5.30,> 5 µM
Cc1ccc(NC(=O)c2sc(C)nc2C)c(C(=O)Nc2ccc(Cl)cc2)c1,6.68,< 5.30,
Cc1ccc(NC(=O)c2sc3ccccc3c2Cl)c(C(=O)Nc2nccs2)c1,< 5.30,< 5.30,> 5 µM
O=C(Nc1ccc(Cl)cc1)c1cc(O)ccc1NC(=O)c1sc2ccccc2c1Cl,7.14,< 5.30,> 5 µM
Cc1ccc(NC(=O)c2cccnc2C)c(C(=O)Nc2ccc(Cl)cc2)c1,< 5.30,< 5.30,> 5 µM
Cc1ccc(NC(=O)c2sc3ccccc3c2Cl)c(C(=O)Nc2ccc(CN)cc2)c1,5.85,< 5.30,> 5 µM
Cc1ccc(NC(=O)c2sc3ccccc3c2Cl)c(C(=O)Nc2ccc(Br)cc2)c1,9.34,< 5.30,
O=C(Nc1cccc(Cl)c1C(=O)Nc1ccc(Cl)cc1)c1sc2ccccc2c1Cl,< 5.30,< 5.30,> 5 µM
COC(=O)c1ccc(NC(=O)c2cc(C)ccc2NC(=O)c2sc3ccccc3c2Cl)cc1,< 5.30,< 5.30,> 5 µM
COc1ccc(COc2ccc(NC(=O)c3sc4ccccc4c3Cl)c(C(=O)Nc3ccc(Cl)cc3)c2)cc1,< 5.30,< 5.30,> 5 µM
COc1c(Br)csc1C(=O)Nc1ccc(C)cc1C(=O)Nc1ccc(Cl)cc1,7.27,< 5.30,
O=C(Nc1ccc(Cl)cc1)c1ccc(F)cc1NC(=O)c1sc2ccccc2c1Cl,7.82,< 5.30,
Cc1ccc(NC(=O)c2sc3ccccc3c2Cl)c(C(=O)Nc2ccc(Cl)cc2)c1,,< 5.30,
Cc1cccc(C(=O)Nc2ccc(Cl)cc2)c1NC(=O)c1sc2ccccc2c1Cl,7.24,< 5.30,> 5 µM
Cc1ccc(NC(=O)c2sc3ccccc3c2Cl)c(C(=O)Nc2cccc(Cl)c2)c1,6.59,< 5.30,> 5 µM
O=C(Nc1ccc(Cl)cc1)c1cc(Cl)c(F)cc1NC(=O)c1sc2ccccc2c1Cl,8.15,< 5.30,
Cc1ccc(NC(=O)c2sccc2Cl)c(C(=O)Nc2ccc(Cl)cc2)c1,6.89,< 5.30,
O=C(Nc1ccc(Cl)cc1)c1cc(Cl)cc(O)c1NC(=O)c1sc2ccccc2c1Cl,8.43,< 5.30,
O=C(Nc1ccc(Cl)cc1)c1ccc(Cl)cc1NC(=O)c1sc2ccccc2c1Cl,7.59,< 5.30,
